Measurements: US11299518B2, “Fusion respiratory syncytial virus inhibitors and use thereof” (priority 2016, dated 2022)
Like-named read-outs stand apart in the source and are kept apart here. Bridge positions count the residues as written; N and C are the ends. Square brackets hold non-standard residues; d marks the D form. Peptide text beside a SMILES is read from it. R8 = C=CCCCCCC[C@@](C)(N)C(=O)O; S5 = C=CCCC[C@](C)(N)C(=O)O

Assays:
[1] = test system: RSV; details: DeVincenzo et al., 2014; cited from earlier work
[2] = CD spectroscopy, percentage of helicity; type: physicochemical; details: CD at 222 nm, 10 mM phosphate buffer pH 7.5, 50 μM peptide, 25° C.
Summary of the method: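 CD spectra were recorded at 25 °C on 50 μM peptide in 10 mM phosphate buffer, pH 7.5, from 180 to 260 nm, averaged over three scans and buffer-subtracted. Percent helicity was calculated from molar ellipticity at 222 nm, normalized to residue number and peptide concentration.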

[3] = test system: recombinant green fluorescent protein (GFP)-expressing RSV virus (strain A2); assay: HRSV-eGFP inhibition assay (cellular viral fusion assay, A549 cells, flow cytometry); type: cell-based
Experimental: The inhibitory activity of the peptides of the invention was assessed in a cellular viral fusion assay as compared to comparative peptides as follows. A549 cells were infected with a recombinant green fluorescent protein (GFP)-expressing RSV virus (strain A2) obtained as described below and in Hallak et al., 2000, Virology, 271:264-275, and the inhibitory activity of the peptides was quantified by flow cytometry.
Following rapid thawing of the frozen eGFP encoding RSV virus at […], the virus was vortexed for 2 min, and pipetted up and down to break aggregates. Serial 4-fold dilutions of inhibitors were prepared in glass tubes and mixed with a volume of virus required to achieve approximately 50% of infection in 200 μl of media containing 2% of FCS. The resulting mixture was added to 24-well plates containing A549 cells. Cells were incubated for 2 hours at 37° C., the media was replaced, and cells were incubated for an additional 24 hours. Cells were treated with 300 μl of trypsin for 10 min at 37° C., and the detached cells were diluted in 1 ml of culture medium. Following centrifugation at 1′700 rpm, the pellet was resuspended in 300 μl of PBS+1% SBF (V/V) and GFP positive cells were counted by FACS analysis.

[4] = Proteolytic stability assay, trypsin; type: in vitro ADME; details: trypsin (isolated protease), pH 8; 50 mM Tris-HCl pH8, 25° C., LC-MS; read-out: t1/2 (min) Trypsin
Experimental: (§1) The compounds according to the invention are tested for their stability in a proteolytic stability assay as described below which is an important parameter to assess for the development of peptide therapeutics. Peptides of the invention 4bb, 4ca, 4a and their unstapled comparative peptide 4, as well as both SAH-RSVFBD isomers were treated with chymotrypsin and trypsin, and analysed by LC/MS to quantify the reaction products over time.
(§2) In vitro proteolytic degradation was measured via LC-MS using an Agilent Infinity 1280 UHPLC system coupled to an Agilent quadruple-time-of-flight (QTOF) 6530 with an Agilent Jet Stream electrospray ionisation (AJS ESI) source (all Agilent Technologies, Waldbronn, Germany). 5 μl of digested sample were injected onto a C18 column (Zorbax Eclipse Plus RRHD, 1.8 μm, 2.1*100 mm, Agilent Technologies, Waldbronn, Germany) equilibrated with solvent A and eluted with a flow rate of 0.4 ml/min over a 5-95% gradient of solvent B in 5 minutes, followed by 1.5 minutes at 95% and 0.5 minutes post-time where solvent A was 95% water, 5% acetonitrile with 0.2% formic acid and solvent B was 5% water, 95% acetonitrile with 0.2% formic acid. The AJS ESI source was operated with a capillary voltage of 4000V and a nozzle voltage of 600V with a drying gas temperature of 325° C. and flow rate of 10 l/min, nebulising gas pressure of 20 psi, and a sheath gas temperature of 300° C. and flow rate of 11l/min. Mass spectra were acquired in the positive ion mode from 100-3200 m/z at a rate of 1 scan per second in extended dynamic range (2 GHz) mode. The fragmentor, skimmer and octopole Radio Frequency voltages were set to 200, 60 and 750 V respectively. Data were acquired and analysed with Agilent MassHunter Workstation (version B.05).
(§3) Peptide digestion was performed as it follows: 10 μl of peptide at 0.29 mM in 50/50 acetonitrile/water were dissolved in 990 μl 100 mM Tris-HCl, pH 8.0 with 10 mM CaCl2. Following measurement of the undigested (to) sample, 10 μl of chymotrypsin at 50 μg/ml in 100 mM Tris-HCl, pH 8.0 with 10 mM CaCl2 were added and the sample was vortexed and placed immediately in the autosampler, set to 25° C. Trypsin digestion was performed as with chymotrypsin except that the buffer was in 50 mM Tris-HCl, pH8. Chymotrypsin and trypsin were purchased from Thermo Fisher Scientific.
(§4) The level of intact peptide was quantified by serial injection over time. Integration of the intact peptide compound chromatogram was performed using the Agilent Molecular Feature Extraction (MFE) algorithm. A plot of the intact peptide MFE peak area over time gave an exponential decay curve, from which the half-life was determined using MatLab […].

[5] = molecular target: T1, chymotrypsin (Bos taurus, UniProt P00766); assay: Proteolytic stability assay, chymotrypsin; type: in vitro ADME
T1 construct: purchased Thermo Fisher Scientific
Experimental: as §1, §2, §3, §4

[6] = test system: RSV; details: Lambert et al., 1996; read-out: EC50 reported previously; cited from earlier work

Question: For `Cc1cn2nc([C@@H]3CCCCN3C(=O)c3cc(Cl)ccc3NS(C)(=O)=O)cc2nc1N1CC[C@H](N)C1` [GS-5806], which EC50 [1] is on record?
Answer: Its EC50 is 0.0004 µM.

Question: With `CC[C@H](C)[C@H](NC(=O)[C@H](Cc1ccccc1)NC(=O)[C@]1(C)CCCC=CCCC[C@](C)(NC(=O)[C@@H](NC(=O)[C@H](CCCCN)NC(=O)[C@H](CCC(=O)O)NC(C)=O)[C@@H](C)CC)C(=O)N[C@@H](CCC(N)=O)C(=O)N[C@@H](CO)C(=O)N[C@@H](CC(C)C)C(=O)N1)C(=O)N[C@@H](CCCNC(=N)N)C(=O)N[C@]1(C)CCCCCCC=CCCC[C@@](C)(C(=O)N[C@H](C(N)=O)C(C)C)NC(=O)[C@H](Cc2c[nH]cn2)NC(=O)[C@H](CC(C)C)NC(=O)[C@H](CC(C)C)NC(=O)[C@H](CCC(=O)O)NC(=O)[C@H](CC(=O)O)NC(=O)[C@H](CO)NC1=O` [Peptide 4bf, EKI X500 QSL X504 FIR 8508 SDELLH X515V, reference compound] (Ac-EKI[S5]QSL[S5]FIR[R8]SDELLH[S5]V-NH2; staple 4-8, 12-19 (inferred)) as the molecule, how does the “% helicity” value [2] read?
Answer: The value was over 100%.

Question: What about the “inhibitory activity in cellular viral fusion assay” value [3] of the same molecule?
Answer: The value was “inactive”.

Question: Which half-life [4] does the source give for “Ac-EKINQSLAFIRKSDELLHNV-NH2 (N-terminus and C-terminus assumed) [Peptide 4, reference compound]” here?
Answer: Its half-life is 5 min.

Question: What about the half-life at 2.9 µM ([5]; chymotrypsin (isolated protease), 100 mM Tris-HCl pH 8.0, 10 mM CaCl2, 25° C., LC-MS, read-out: t1/2 (min) Chymotrypsin) of the same molecule?
Answer: Its half-life at 2.9 µM is 4.5 min.

Question: And the “time to full degradation” value ([5]; treated with chymotrypsin and trypsin)?
Answer: Its value is 10 min.

Question: With “Ac-YDPLVFPSDEFDASISQVNEKINQSLAFIRKSDEL-NH2 (N-terminus and C-terminus assumed) [Peptide T108]” as the molecule, how does the EC50 [6] read?
Answer: Its EC50 is 1.48 µM.
